# Molecular target: T1, BTK (Homo sapiens, UniProt Q06187)
# T1 construct: endogenous in cells; host or cells: TMD-8 cells
# Experiment: BTK degradation in TMD-8 cells, HTRF assay after 6 h treatment
# Type: cell-based
# Conditions: IC50 (DC50) of BTK degradation
# Summary of the method: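 TMD-8 cells treated for 6 h with 8 compound doses in 6-fold dilution steps from a 1 mM 500× DMSO stock (0.2% DMSO), then lysed 30 min at room temperature. BTK in lysate detected by HTRF (665/620 nm) after overnight antibody incubation; DC50 from four-parameter curve fit.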
# T1 sequence (Q06187 whole entry): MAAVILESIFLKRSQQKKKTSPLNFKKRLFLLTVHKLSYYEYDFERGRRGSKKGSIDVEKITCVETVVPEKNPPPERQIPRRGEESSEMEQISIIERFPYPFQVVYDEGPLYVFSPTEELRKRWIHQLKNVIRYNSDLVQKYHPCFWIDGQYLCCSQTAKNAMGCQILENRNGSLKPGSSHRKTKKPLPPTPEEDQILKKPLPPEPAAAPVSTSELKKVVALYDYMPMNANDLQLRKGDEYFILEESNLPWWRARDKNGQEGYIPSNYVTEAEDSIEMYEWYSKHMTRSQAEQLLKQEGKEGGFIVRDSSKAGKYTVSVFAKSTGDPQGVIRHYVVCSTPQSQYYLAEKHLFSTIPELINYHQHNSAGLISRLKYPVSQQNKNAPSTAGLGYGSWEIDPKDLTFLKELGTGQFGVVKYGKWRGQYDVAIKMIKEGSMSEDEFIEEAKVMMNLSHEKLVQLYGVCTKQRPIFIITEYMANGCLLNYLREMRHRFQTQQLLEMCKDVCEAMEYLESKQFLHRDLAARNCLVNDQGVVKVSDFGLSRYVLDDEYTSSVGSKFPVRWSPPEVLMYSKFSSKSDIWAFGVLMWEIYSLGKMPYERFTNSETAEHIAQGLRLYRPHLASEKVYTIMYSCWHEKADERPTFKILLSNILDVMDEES
row,Structure (SMILES),DC50 [nM]
1,"Cc1cc(CCN2CCN(c3ccc(-c4cnc5[nH]nc(-c6ccc([C@@H](C)NC(=O)c7noc(C(C)(C)C)n7)c(C)c6)c5c4)nc3)CC2)ncc1C1CCC(=O)NC1=O (stereo partly drawn) [Example 147, 5-(tert-butyl)-N-((1R)-1-(4-(5-(5-(4-(2-(5-(2,6-dioxopiperidin-3-yl)-4-methylpyridin-2-yl)ethyl)piperazin-1-yl)pyridin-2-yl)-1H-pyrazolo[3,4-b]pyridin-3-yl)-2-methylphenyl)ethyl)-1,2,4-oxadiazole-3-carboxamide]",2.11
2,"Cc1cc(-c2n[nH]c3ncc(-c4ccc(N5CCN(CCc6ccc(N7CC(=O)NC7=O)cc6)CC5)cc4)cc23)ccc1[C@@H](C)NC(=O)c1nc(C(C)(C)C)no1 [Example 217, (R)-3-(tert-butyl)-N-(1-(4-(5-(4-(4-(4-(2,4-dioxoimidazolidin-1-yl)phenethyl)piperazin-1-yl)phenyl)-1H-pyrazolo[3,4-b]pyridin-3-yl)-2-methylphenyl)ethyl)-1,2,4-oxadiazole-5-carboxamide]",1960
3,"Cc1cc(-c2n[nH]c3ncc(-c4ccc(N5CCN(CC6CCN(c7ccc(N8CCC(=O)NC8=O)c(C)c7)CC6)CC5)cc4)cc23)ccc1[C@@H](C)NC(=O)c1noc(C2(CO)CC2)n1 [Example 185, (R)—N-(1-(4-(5-(4-(4-((1-(4-(2,4-dioxotetrahydropyrimidin-1(2H)-yl)-3-methylphenyl)piperidin-4-yl)methyl)piperazin-1-yl)phenyl)-1H-pyrazolo[3,4-b]pyridin-3-yl)-2-methylphenyl)ethyl)-5-(1-(hydroxymethyl)cyclopropyl)-1,2,4-oxadiazole-3-carboxamide]",16.2
4,"Cc1cc(-c2n[nH]c3ncc(-c4ccc(N5CCN(CCc6ccc(NC7CCC(=O)NC7=O)cc6)CC5)cc4)cc23)ccc1[C@@H](C)NC(=O)c1noc(C(C)(C)C)n1 (stereo partly drawn) [Example 131, 5-(tert-butyl)-N-((1R)-1-(4-(5-(4-(4-(4-((2,6-dioxopiperidin-3-yl)amino)phenethyl)piperazin-1-yl)phenyl)-1H-pyrazolo[3,4-b]pyridin-3-yl)-2-methylphenyl)ethyl)-1,2,4-oxadiazole-3-carboxamide]",5.9
5,"Cc1cc(-c2n[nH]c3ncc(-c4ccc(C5CCN(CCC6CCN(c7ccc(N8CCC(=O)NC8=O)c(Cl)c7)CC6)CC5)cc4)cc23)ccc1CNC(=O)c1nc(C(C)(C)C)no1 [Example 23, 3-(tert-butyl)-N-(4-(5-(4-(1-(2-(1-(3-chloro-4-(2,4-dioxotetrahydropyrimidin-1(2H)-yl)phenyl)piperidin-4-yl)ethyl)piperidin-4-yl)phenyl)-1H-pyrazolo[3,4-b]pyridin-3-yl)-2-methylbenzyl)-1,2,4-oxadiazole-5-carboxamide]",4.04
6,"Cc1cc(-c2n[nH]c3ncc(-c4ccc(N5CCN(CCc6ccc([C@H]7CCC(=O)NC7=O)cc6)CC5)cc4)cc23)ccc1CNC(=O)c1cn(C(C)(C)C)nn1 [Example 150, (R)-1-(tert-butyl)-N-(4-(5-(4-(4-(4-(2,6-dioxopiperidin-3-yl)phenethyl)piperazin-1-yl)phenyl)-1H-pyrazolo[3,4-b]pyridin-3-yl)-2-methylbenzyl)-1H-1,2,3-triazole-4-carboxamide]",8.88
7,"Cc1cc(-c2n[nH]c3ncc(-c4ccc(N5CCN(CCC6CCN(c7ccc([C@H]8CCC(=O)NC8=O)cc7)CC6)CC5)cc4)cc23)ccc1CNC(=O)c1noc(C(C)(C)C)n1 [Example 91, (R)-5-(tert-butyl)-N-(4-(5-(4-(4-(2-(1-(4-(2,6-dioxopiperidin-3-yl)phenyl)piperidin-4-yl)ethyl)piperazin-1-yl)phenyl)-1H-pyrazolo[3,4-b]pyridin-3-yl)-2-methylbenzyl)-1,2,4-oxadiazole-3-carboxamide]",1.97
8,"Cc1cc(N2CCC(CCN3CCN(c4ccc(-c5cnc6[nH]nc(-c7ccc([C@@H](C)NC(=O)c8noc(C(C)(C)C)n8)c(C)c7)c6c5)cc4)CC3)CC2)ccc1C1CCC(=O)NC1=O (stereo partly drawn) [Example 168, 5-(tert-butyl)-N-((1R)-1-(4-(5-(4-(4-(2-(1-(4-(2,6-dioxopiperidin-3-yl)-3-methylphenyl)piperidin-4-yl)ethyl)piperazin-1-yl)phenyl)-1H-pyrazolo[3,4-b]pyridin-3-yl)-2-methylphenyl)ethyl)-1,2,4-oxadiazole-3-carboxamide]",15.6
9,"Cc1cc(-c2n[nH]c3ncc(-c4ccc(N5CCN(CC6CCN(c7ccc(N8CCC(=O)NC8=O)cc7C)CC6)CC5)cc4)cc23)ccc1[C@@H](C)NC(=O)c1noc(C(C)(C)C)n1 [Example 135, (R)-5-(tert-butyl)-N-(1-(4-(5-(4-(4-((1-(4-(2,4-dioxotetrahydropyrimidin-1(2H)-yl)-2-methylphenyl)piperidin-4-yl)methyl)piperazin-1-yl)phenyl)-1H-pyrazolo[3,4-b]pyridin-3-yl)-2-methylphenyl)ethyl)-1,2,4-oxadiazole-3-carboxamide]",12.7
10,"Cc1cc(-c2n[nH]c3ncc(-c4ccc(N5CCN(CCc6ccc([C@H]7CCC(=O)NC7=O)cn6)CC5)cc4)cc23)ccc1[C@@H](C)NC(=O)c1noc(C(C)(C)C)n1 [Example 140, 5-(tert-butyl)-N—((R)-1-(4-(5-(4-(4-(2-(5-((R)-2,6-dioxopiperidin-3-yl)pyridin-2-yl)ethyl)piperazin-1-yl)phenyl)-1H-pyrazolo[3,4-b]pyridin-3-yl)-2-methylphenyl)ethyl)-1,2,4-oxadiazole-3-carboxamide]",1.11
11,"Cc1cc(-c2n[nH]c3ncc(-c4ccc(N5CCN(CCc6ccc(N7CCC(=O)NC7=O)nc6)CC5)cc4)cc23)ccc1[C@@H](C)NC(=O)c1noc(C(C)(C)C)n1 [Example 159, (R)-5-(tert-butyl)-N-(1-(4-(5-(4-(4-(2-(6-(2,4-dioxotetrahydropyrimidin-1(2H)-yl)pyridin-3-yl)ethyl)piperazin-1-yl)phenyl)-1H-pyrazolo[3,4-b]pyridin-3-yl)-2-methylphenyl)ethyl)-1,2,4-oxadiazole-3-carboxamide]",56.3

# Continued by falling DC50, values first:
row,DC50 [nM],Structure (SMILES)
1,71.4,"Cc1cc(-c2n[nH]c3ncc(-c4cccc(N5CCN(CC6CCN(c7ccc(N8CCC(=O)NC8=O)cc7)CC6)CC5)c4)cc23)ccc1[C@@H](C)NC(=O)c1noc(C(C)(C)C)n1 [Example 95, (R)-5-(tert-butyl)-N-(1-(4-(5-(3-(4-((1-(4-(2,4-dioxotetrahydropyrimidin-1(2H)-yl)phenyl)piperidin-4-yl)methyl)piperazin-1-yl)phenyl)-1H-pyrazolo[3,4-b]pyridin-3-yl)-2-methylphenyl)ethyl)-1,2,4-oxadiazole-3-carboxamide]"
2,9.45,"Cc1cc(-c2n[nH]c3ncc(-c4ccc(N5CCN(CC6CCN(c7ccc(N8CCC(=O)NC8=O)cc7)CC6)CC5)cc4)cc23)ccc1[C@@H](C)NC(=O)c1nnc(C(C)(C)C)o1 [Example 225, (R)-5-(tert-butyl)-N-(1-(4-(5-(4-(4-((1-(4-(2,4-dioxotetrahydropyrimidin-1(2H)-yl)phenyl)piperidin-4-yl)methyl)piperazin-1-yl)phenyl)-1H-pyrazolo[3,4-b]pyridin-3-yl)-2-methylphenyl)ethyl)-1,3,4-oxadiazole-2-carboxamide]"
3,9.25,"Cc1cc(-c2n[nH]c3ncc(-c4ccc(C5CCN(CCCOc6ccc(C7CCC(=O)NC7=O)c(C)c6)CC5)cc4)cc23)ccc1CNC(=O)c1nc(C(C)(C)C)no1 (centres unmarked) [Example 27, 3-(tert-butyl)-N-(4-(5-(4-(1-(3-(4-(2,6-dioxopiperidin-3-yl)-3-methylphenoxy)propyl)piperidin-4-yl)phenyl)-1H-pyrazolo[3,4-b]pyridin-3-yl)-2-methylbenzyl)-1,2,4-oxadiazole-5-carboxamide]"
4,8.07,"COc1cc(OCCCN2CCN(c3ccc(-c4cnc5[nH]nc(-c6ccc([C@@H](C)NC(=O)c7nc(C(C)(C)C)no7)c(C)c6)c5c4)cc3)CC2)ccc1N1CCC(=O)NC1=O [Example 118, (R)-3-(tert-butyl)-N-(1-(4-(5-(4-(4-(3-(4-(2,4-dioxotetrahydropyrimidin-1(2H)-yl)-3-methoxyphenoxy)propyl)piperazin-1-yl)phenyl)-1H-pyrazolo[3,4-b]pyridin-3-yl)-2-methylphenyl)ethyl)-1,2,4-oxadiazole-5-carboxamide]"
5,3.2,"Cc1cc(-c2n[nH]c3ncc(-c4ccc(N5CCN(CC6CCN(c7ccc(N8CCC(=O)NC8=O)c(F)c7)CC6)CC5)cc4)cc23)ccc1[C@@H](C)NC(=O)c1noc(C(C)(C)C)n1 [Example 38, (R)-5-(tert-butyl)-N-(1-(4-(5-(4-(4-((1-(4-(2,4-dioxotetrahydropyrimidin-1(2H)-yl)-3-fluorophenyl)piperidin-4-yl)methyl)piperazin-1-yl)phenyl)-1H-pyrazolo[3,4-b]pyridin-3-yl)-2-methylphenyl)ethyl)-1,2,4-oxadiazole-3-carboxamide]"
6,1.05,"Cc1cc(-c2n[nH]c3ncc(-c4ccc(N5CCN(CCn6nc(C)c(C7CCC(=O)NC7=O)c6C)CC5)cc4)cc23)ccc1[C@@H](C)NC(=O)c1nc(C(C)(C)C)no1 (stereo partly drawn) [Example 196, 3-(tert-butyl)-N-((1R)-1-(4-(5-(4-(4-(2-(4-(2,6-dioxopiperidin-3-yl)-3,5-dimethyl-1H-pyrazol-1-yl)ethyl)piperazin-1-yl)phenyl)-1H-pyrazolo[3,4-b]pyridin-3-yl)-2-methylphenyl)ethyl)-1,2,4-oxadiazole-5-carboxamide]"
7,0.427,"Cc1cc(-c2n[nH]c3ncc(-c4ccc(N5CCN(CCc6ccc(C7CCC(=O)NC7=O)cn6)CC5)cc4)cc23)ccc1CNC(=O)c1noc(C(C)(C)C)n1 (centres unmarked) [Example 229, 5-(tert-butyl)-N-(4-(5-(4-(4-(2-(5-(2,6-dioxopiperidin-3-yl)pyridin-2-yl)ethyl)piperazin-1-yl)phenyl)-1H-pyrazolo[3,4-b]pyridin-3-yl)-2-methylbenzyl)-1,2,4-oxadiazole-3-carboxamide]"

# Same assay, conditions: TMD8, maximum percentage of inhibition (degradation)
row,Dmax [%],Structure (SMILES)
1,95.3,"Cc1cc(-c2n[nH]c3ncc(-c4ccc(C5CCN(CCCOc6ccc(C7CCC(=O)NC7=O)c(C)c6)CC5)cc4)cc23)ccc1CNC(=O)c1nc(C(C)(C)C)no1 (centres unmarked) [Example 27, 3-(tert-butyl)-N-(4-(5-(4-(1-(3-(4-(2,6-dioxopiperidin-3-yl)-3-methylphenoxy)propyl)piperidin-4-yl)phenyl)-1H-pyrazolo[3,4-b]pyridin-3-yl)-2-methylbenzyl)-1,2,4-oxadiazole-5-carboxamide]"
2,96,"Cc1cc(-c2n[nH]c3ncc(-c4ccc(C5CCN(CCC6CCN(c7ccc(N8CCC(=O)NC8=O)c(Cl)c7)CC6)CC5)cc4)cc23)ccc1CNC(=O)c1nc(C(C)(C)C)no1 [Example 23, 3-(tert-butyl)-N-(4-(5-(4-(1-(2-(1-(3-chloro-4-(2,4-dioxotetrahydropyrimidin-1(2H)-yl)phenyl)piperidin-4-yl)ethyl)piperidin-4-yl)phenyl)-1H-pyrazolo[3,4-b]pyridin-3-yl)-2-methylbenzyl)-1,2,4-oxadiazole-5-carboxamide]"

# Reference: patent US20230322761A1, “DEGRADATION OF BRUTON'S TYROSINE KINASE (BTK) BY CONJUGATION OF BTK INHIBITORS WITH E3 LIGASE LIGAND AND METHODS OF USE” (BEIGENE, LTD., priority 2020, published 2023)
